Data published in publication PMC12031237, “Toxicity Assessment of (4Z)-Lachnophyllum and (4Z,8Z)-Matricaria Lactones: Implications for Environmental Safety of Bioherbicides” (Toxins, 2025).
≈ marks a conversion by molar mass, not a printed value. Where two headings read alike, the source gives them in different places.

Legend:
D. magna [1] = conditions: 48 h, cited from earlier work
R. subcapitata [2] = test: Literature growth inhibition of R. subcapitata by herbicides; type: cell-based, Raphidocelis subcapitata
From the text: (§1) Table 3 EC50 values from the literature for the aquatic test species exposed to multiple commonly used herbicides. | column: Hazard Ranking

A. fischeri [3] = test: Literature acute toxicity of herbicides to A. fischeri; type: cell-based, Aliivibrio fischeri
From the text: as §1

R. subcapitata [4] = conditions: cited from earlier work
A. fischeri [5] = conditions: 30 min, cited from earlier work
D. magna [6] = test: Literature acute toxicity of herbicides to D. magna; type: in vivo, Daphnia magna
From the text: as §1

C. elegans = test: Nematode survival bioassay in soil, ASTM E2172-01; type: in vivo; conditions: 24 h exposure, positive control
Description: The nematode bioassay was carried out using the Caenorhabditis elegans wild-type strain N2, Bristol variant, according to the ASTM E2172—01 Standard Method (2014). Culture was maintained on NGM (nematode growth media) plates seeded with Escherichia coli (uracil-deficient OP50 strain) and stored at 20 °C. The tests were conducted using age-synchronized adult nematodes, obtained by lysing gravid nematodes with a bleaching solution (10 g/L NaOH, 10.5 g/L NaOCl), followed by centrifugation and washing with an M9 mineral medium (2.2 mM KH2PO4, 4.2 mM Na2HPO4, 85.6 mM NaCl, and 1 mM MgSO4). The synchronized nematodes were then transferred to NGM agar plates and left to recover overnight.
Soil samples (2.33 g) were hydrated to 35–45% of their dry weight using K-medium in centrifuge tubes. Ten worms were transferred to each tube and exposed to the soil samples for 24 h at 20 °C. […] Treatments were performed in triplicate, with worms kept unfed during the exposure period. Nematodes were extracted by centrifugation (2000 rpm, 2 min) using silica gel (Ludox TM 50, Sigma-Aldrich, St. Louis, MO, USA) with a specific density of 1.13 g/mL. The supernatant was then transferred to 100 mm glass Petri dishes and washed with Keller (K) medium. Extracted individuals were counted under a microscope (40× magnification), with mortality as the measured endpoint. Test validity required a minimum of 80% nematode recovery and 90% survival in the control group.

D. magna [7] = test: Crustacean immobility acute test, ISO 6341; type: in vivo, Daphnia magna
Description: The immobility acute test (48 h) with D. magna was conducted according to ISO 6341 [60]. D. magna was selected from laboratory stock cultures at the Hygiene Laboratory of the Department of Biology of the University of Naples Federico II, placed in ISO medium, and fed daily with the microalgae R. subcapitata. For the test, five neonates (third brood, <24 h old) were exposed in 10 mL of ISO medium to the following corresponding concentrations: 0.22, 0.43, 0.86, 1.73, 3.46, 6.91, 13.83, 27.65, and 55.30 mg L^−^1 and a negative control of 0 mg L^−^1. Each concentration had 4 replicates, and immobility was assessed after 24 and 48 h of exposure.
(§2) Data analysis was conducted using RStudio for Windows (Version 2024.09.1). Dose–response models were applied to estimate the effective concentrations (EC10 and EC50) for the tested endpoints using the “drc” package. For D. magna, the data were modeled with a binomial log-logistic approach, whereas data for R. subcapitata, A. fischeri and L. sativum were fitted to log-logistic models with the upper limit constrained to 100. Furthermore, to ensure assay sensitivity and validity, a positive control exposed to potassium dichromate for the aquatic species and copper chloride for C. elegans was tested under the same experimental conditions.

R. subcapitata [8] = test: Algal growth inhibition test, ISO 8692; conditions: positive control
Description: The algal growth inhibition test (72 h) with R. subcapitata was carried out according to ISO 8692 [58]. The algal density was determined by spectrophotometric analysis (DR5000, Hach Lange GbH, Weinheim, Germany) at 670 nm. The concentrations tested correspond to 0.19, 0.39, 0.78, 1.56, and 3.12 mg L^−^1 and a negative control of 0 mg L^−^1. The growth inhibition was calculated as the difference in growth at the end of the test of the sample and the control group. Toxicity tests were carried out in triplicate.
as §2

A. fischeri [9] = test: Bioluminescence (light) inhibition test, ISO 11348-3; conditions: 30 min exposure; standard error in brackets, n = 3
Description: The bioluminescence inhibition test (30 min) was detected with the A. fischeri (NRRLB-11177) supplied by MicroBioTest, Gent, Belgium, and according to ISO 11348-3 [59]. The bioluminescence was determined by the luminometer Microtox (Model 500 analyzer, New Castle, DE, USA) at 490 nm. To provide the required osmotic pressure for the bacterium, the stock solution was diluted to perform the test in saline water solution (2% sodium chloride, NaCl). The concentrations tested correspond to 0.19, 0.39, 0.78, 1.56, and 3.12 mg L^−^1 and a negative control of 0 mg L^−^1. Toxicity tests were performed in triplicate with a control, and the percentage luminescence inhibition was expressed as the ratio of the decrease in bacterial light production to the remaining light.
as §2

[10] = GHS ranking of 72 h EC50 of ref 49
[11] = GHS ranking of 30 min EC50 of ref 49
[12] = GHS ranking of 48 h EC50 of ref 49
[13] = GHS ranking of 96 h EC50 of ref 47

CCNc1nc(Cl)nc(NC(C)C)n1 [Atrazine]
EC50 (D. magna [1]; ref 49): 0.05 mg/L (≈ 0.232 µM)
Hazard Ranking (R. subcapitata [2]; [10]): **** (Very toxic (≤1 mg L^−1))
Hazard Ranking (A. fischeri [3]; [11]): ** (harmful: (<10 mg L^−1 ≤ 100 mg L^−1))
EC50 (R. subcapitata [4]; 72 h): 0.02 µg/mL (≈ 0.0927 µM)
EC50 (A. fischeri [5]; ref 49): 39.80 µg/mL (≈ 185 µM)
Hazard Ranking (D. magna [6]; [12]): **** (Very toxic (≤1 mg L^−1))

O=C(O)CNCP(=O)(O)O [Glyphosate]
EC50 (D. magna [1]; average of multiple tests performed, given as isopropylamine salt): 4.30 °° mg L^−1
EC50 (D. magna [1]; average of multiple tests performed, rounded up (formulation commercially available)): 7.15 ° mg L^−1
EC50 (D. magna [1]; ref 40): 4.20 mg/L (≈ 24.8 µM)
EC50 (D. magna [1]; ref 41): 8.90 mg/L (≈ 52.6 µM)
LC50 (D. magna [1]; ref 42): 21.34 µg/mL (≈ 126 µM)
LC50 (D. magna [1]; ref 43): 190.0 µg/mL (≈ 1120 µM)
LC50 (D. magna [1]; ref 44): 0.012 µg/mL (≈ 0.071 µM)
LC50 (D. magna [1]; ref 45): 9.34 µg/mL (≈ 55.2 µM)
LC50 (D. magna [1]; ref 46): 11.68 µg/mL (≈ 69.1 µM)
Hazard Ranking (R. subcapitata [2]; [13]): *** (toxic (<1 mg L^−1 ≤ 10 mg L^−1))
Hazard Ranking (A. fischeri [3]; GHS ranking of 30 min EC50 of ref 48): *** (toxic (<1 mg L^−1 ≤ 10 mg L^−1))
EC50 (R. subcapitata [4]; 96 h): 5.55 µg/mL (≈ 32.8 µM)
EC50 (A. fischeri [5]; ref 48): 2.93 µg/mL (≈ 17.3 µM)
Hazard Ranking (D. magna [6]; GHS ranking of 48 h EC50 (commercial formulation) of ref 39): *** (toxic (<1 mg L^−1 ≤ 10 mg L^−1))
Hazard Ranking (D. magna [6]; GHS ranking of 48 h EC50 (isopropylamine salt) of ref 39): *** (toxic (<1 mg L^−1 ≤ 10 mg L^−1))
Hazard Ranking (D. magna [6]; GHS ranking of 48 h EC50 of ref 40): *** (toxic (<1 mg L^−1 ≤ 10 mg L^−1))
Hazard Ranking (D. magna [6]; GHS ranking of 48 h EC50 of ref 41): *** (toxic (<1 mg L^−1 ≤ 10 mg L^−1))
Hazard Ranking (D. magna [6]; GHS ranking of 48 h LC50 of ref 42): ** (harmful: (<10 mg L^−1 ≤ 100 mg L^−1))
Hazard Ranking (D. magna [6]; GHS ranking of 48 h LC50 of ref 43): * (not harmful: (>100 mg L^−1))
Hazard Ranking (D. magna [6]; GHS ranking of 48 h LC50 of ref 44): **** (Very toxic (≤1 mg L^−1))
Hazard Ranking (D. magna [6]; GHS ranking of 48 h LC50 of ref 45): *** (toxic (<1 mg L^−1 ≤ 10 mg L^−1))
Hazard Ranking (D. magna [6]; GHS ranking of 48 h LC50 of ref 46): ** (harmful: (<10 mg L^−1 ≤ 100 mg L^−1))

CCc1cccc(C)c1N(C(=O)CCl)C(C)COC (stereo not shown) [Metolachlor]
EC50 (D. magna [1]; ref 49): 23.50 mg/L (≈ 82.8 µM)
Hazard Ranking (R. subcapitata [2]; [10]): **** (Very toxic (≤1 mg L^−1))
Hazard Ranking (R. subcapitata [2]; [13]): *** (toxic (<1 mg L^−1 ≤ 10 mg L^−1))
Hazard Ranking (A. fischeri [3]; [11]): ** (harmful: (<10 mg L^−1 ≤ 100 mg L^−1))
Hazard Ranking (A. fischeri [3]; GHS ranking of 30 min EC50 of ref 50): * (not harmful: (>100 mg L^−1))
Hazard Ranking (A. fischeri [3]; GHS ranking of 30 min EC50 of ref 51): * (not harmful: (>100 mg L^−1))
EC50 (R. subcapitata [4]; 72 h): 0.055 µg/mL (≈ 0.194 µM)
EC50 (R. subcapitata [4]; 96 h): 5.51 µg/mL (≈ 19.4 µM)
EC50 (A. fischeri [5]; ref 49): 17.00 µg/mL (≈ 59.9 µM)
EC50 (A. fischeri [5]; ref 50): 265.00 µg/mL (≈ 934 µM)
EC50 (A. fischeri [5]; ref 51): 214.85 µg/mL (≈ 757 µM)
Hazard Ranking (D. magna [6]; [12]): ** (harmful: (<10 mg L^−1 ≤ 100 mg L^−1))

CCC(=O)Nc1ccc(Cl)c(Cl)c1 [Propanil]
EC50 (D. magna [1]; ref 49): 2.00 mg/L (≈ 9.17 µM)
Hazard Ranking (R. subcapitata [2]; [10]): **** (Very toxic (≤1 mg L^−1))
EC50 (R. subcapitata [4]; 72 h): 0.05 µg/mL (≈ 0.229 µM)
Hazard Ranking (D. magna [6]; [12]): *** (toxic (<1 mg L^−1 ≤ 10 mg L^−1))

[Cl][Cu][Cl] [copper chloride, reference compound]
EC50 (C. elegans): 42.37 µg/mL

[K+].[K+].[O]=[Cr](=[O])([O-])[O][Cr](=[O])(=[O])[O-] [potassium dichromate, reference compound]
EC50 (immobilization) (D. magna [7]; 24 h exposure): 10.501 µg/mL
EC50 (immobilization) (D. magna [7]; 48 h exposure): 5.66 µg/mL
EC50 (growth inhibition) (R. subcapitata [8]): 0.987 µg/mL
EC50 (light inhibition) (A. fischeri [9]): 3.730 µg/mL
